# Like-named read-outs stand apart in the source and are kept apart here.
# Assays:
# [1] = tested on: ovariectomized (OVX) rats; details: rat, in vivo, po, 1.5 mg/kg
# [2] = tested on: osteoclast precursors (bone marrow hematopoietic cells); assay type: cell-based, SD rats; details: read-out: IC50 Osteoclastogenesis
# [3] = tested on: ovariectomized (OVX) mice; parameters: species or system ICR mice; details: mouse, in vivo, po, 1.5 mg/kg
# integrin α5β1 = target: T1, integrin α5β1 (Homo sapiens, UniProt P05556+P08648); assay type: cell-based
# T1 construct: Human erythroleukemia K562 cells were purchased from ATCC; host or cells: K562
# platelet aggregation = platelet aggregation (Homo sapiens, UniProt P05106+P08514); assay type: cell-based
# integrin αIIbβ3 = target: T2, integrin αIIbβ3 (Homo sapiens, UniProt P05106+P08514); assay type: cell-based
# T2 construct: host or cells: CHO (CHO-αIIbβ3)
# integrin αvβ3 = integrin αvβ3 (UniProt P05106+P06756); assay type: cell-based
# [4] = mouse, in vivo
# Chain of integrin αvβ3 (P06756 31-1048): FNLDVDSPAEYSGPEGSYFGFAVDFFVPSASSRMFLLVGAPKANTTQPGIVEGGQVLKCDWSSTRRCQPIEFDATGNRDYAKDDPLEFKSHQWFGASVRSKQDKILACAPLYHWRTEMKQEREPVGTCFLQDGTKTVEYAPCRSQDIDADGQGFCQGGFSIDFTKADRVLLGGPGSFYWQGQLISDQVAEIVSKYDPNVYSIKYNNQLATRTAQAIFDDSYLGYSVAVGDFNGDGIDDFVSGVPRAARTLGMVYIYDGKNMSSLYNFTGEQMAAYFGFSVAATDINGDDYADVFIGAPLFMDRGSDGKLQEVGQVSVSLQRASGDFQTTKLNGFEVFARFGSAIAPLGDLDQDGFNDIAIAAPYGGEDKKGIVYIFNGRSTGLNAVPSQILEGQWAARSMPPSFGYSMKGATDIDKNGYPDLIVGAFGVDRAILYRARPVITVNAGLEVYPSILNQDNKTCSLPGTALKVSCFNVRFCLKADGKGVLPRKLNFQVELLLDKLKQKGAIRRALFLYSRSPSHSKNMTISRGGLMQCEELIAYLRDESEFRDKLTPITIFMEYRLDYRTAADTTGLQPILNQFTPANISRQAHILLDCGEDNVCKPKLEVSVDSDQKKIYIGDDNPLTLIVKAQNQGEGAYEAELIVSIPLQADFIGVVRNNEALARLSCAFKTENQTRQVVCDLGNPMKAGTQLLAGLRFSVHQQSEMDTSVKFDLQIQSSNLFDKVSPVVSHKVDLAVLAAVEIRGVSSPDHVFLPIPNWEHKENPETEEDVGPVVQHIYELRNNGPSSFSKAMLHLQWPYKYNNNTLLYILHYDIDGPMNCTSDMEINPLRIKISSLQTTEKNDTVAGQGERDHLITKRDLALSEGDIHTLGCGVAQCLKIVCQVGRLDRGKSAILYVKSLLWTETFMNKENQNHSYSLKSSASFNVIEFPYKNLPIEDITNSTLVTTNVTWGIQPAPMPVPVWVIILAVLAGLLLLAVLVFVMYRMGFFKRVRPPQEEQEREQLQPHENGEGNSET
# Chain of integrin αvβ3 (P05106 27-788): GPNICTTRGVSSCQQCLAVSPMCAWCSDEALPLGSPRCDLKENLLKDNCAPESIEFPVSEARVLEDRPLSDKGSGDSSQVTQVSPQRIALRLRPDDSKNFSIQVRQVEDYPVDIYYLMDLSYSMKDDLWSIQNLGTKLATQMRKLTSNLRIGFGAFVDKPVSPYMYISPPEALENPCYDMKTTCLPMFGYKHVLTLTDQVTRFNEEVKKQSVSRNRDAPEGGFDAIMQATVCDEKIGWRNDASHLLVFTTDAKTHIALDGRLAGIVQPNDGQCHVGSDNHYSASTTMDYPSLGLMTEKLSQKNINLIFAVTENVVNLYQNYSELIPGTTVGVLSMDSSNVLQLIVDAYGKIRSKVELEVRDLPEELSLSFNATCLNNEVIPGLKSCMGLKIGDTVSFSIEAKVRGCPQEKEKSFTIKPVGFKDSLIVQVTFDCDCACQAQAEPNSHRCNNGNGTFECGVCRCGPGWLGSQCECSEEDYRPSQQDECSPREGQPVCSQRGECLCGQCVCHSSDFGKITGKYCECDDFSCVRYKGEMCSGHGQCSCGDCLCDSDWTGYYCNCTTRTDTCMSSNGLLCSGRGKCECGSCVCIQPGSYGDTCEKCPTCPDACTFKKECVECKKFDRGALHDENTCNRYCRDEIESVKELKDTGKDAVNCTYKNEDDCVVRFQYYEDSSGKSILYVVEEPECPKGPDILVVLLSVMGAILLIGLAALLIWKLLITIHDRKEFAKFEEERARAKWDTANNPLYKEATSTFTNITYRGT
# T1 sequence (P08648 42-894 limits assumed): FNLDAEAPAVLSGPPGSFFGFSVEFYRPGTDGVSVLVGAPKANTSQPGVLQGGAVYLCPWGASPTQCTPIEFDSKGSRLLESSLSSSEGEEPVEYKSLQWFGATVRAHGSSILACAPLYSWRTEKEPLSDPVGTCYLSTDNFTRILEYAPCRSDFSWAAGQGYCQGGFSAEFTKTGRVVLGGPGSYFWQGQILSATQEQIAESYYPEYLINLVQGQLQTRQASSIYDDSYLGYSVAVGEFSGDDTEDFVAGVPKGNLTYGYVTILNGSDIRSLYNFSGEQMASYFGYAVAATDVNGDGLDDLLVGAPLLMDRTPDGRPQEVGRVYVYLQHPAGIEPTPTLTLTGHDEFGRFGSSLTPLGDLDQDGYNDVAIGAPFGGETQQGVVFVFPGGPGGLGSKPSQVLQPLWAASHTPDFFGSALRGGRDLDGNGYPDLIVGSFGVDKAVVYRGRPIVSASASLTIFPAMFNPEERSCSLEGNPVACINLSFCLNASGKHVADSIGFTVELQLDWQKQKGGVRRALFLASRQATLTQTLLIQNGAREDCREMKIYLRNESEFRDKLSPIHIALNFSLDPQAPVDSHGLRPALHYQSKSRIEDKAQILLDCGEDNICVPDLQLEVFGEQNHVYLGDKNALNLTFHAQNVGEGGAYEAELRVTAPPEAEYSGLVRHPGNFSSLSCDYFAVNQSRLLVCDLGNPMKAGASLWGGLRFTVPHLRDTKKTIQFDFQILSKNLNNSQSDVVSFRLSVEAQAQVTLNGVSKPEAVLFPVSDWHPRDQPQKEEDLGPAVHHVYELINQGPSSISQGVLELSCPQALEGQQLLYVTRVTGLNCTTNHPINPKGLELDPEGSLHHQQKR
# T1 sequence (P08648 895-1049 partner limits assumed): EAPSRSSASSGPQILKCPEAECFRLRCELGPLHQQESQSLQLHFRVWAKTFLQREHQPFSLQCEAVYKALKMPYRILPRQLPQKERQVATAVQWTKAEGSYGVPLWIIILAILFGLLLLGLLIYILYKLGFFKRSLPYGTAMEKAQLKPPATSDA
# T1 sequence (P05556 21-798): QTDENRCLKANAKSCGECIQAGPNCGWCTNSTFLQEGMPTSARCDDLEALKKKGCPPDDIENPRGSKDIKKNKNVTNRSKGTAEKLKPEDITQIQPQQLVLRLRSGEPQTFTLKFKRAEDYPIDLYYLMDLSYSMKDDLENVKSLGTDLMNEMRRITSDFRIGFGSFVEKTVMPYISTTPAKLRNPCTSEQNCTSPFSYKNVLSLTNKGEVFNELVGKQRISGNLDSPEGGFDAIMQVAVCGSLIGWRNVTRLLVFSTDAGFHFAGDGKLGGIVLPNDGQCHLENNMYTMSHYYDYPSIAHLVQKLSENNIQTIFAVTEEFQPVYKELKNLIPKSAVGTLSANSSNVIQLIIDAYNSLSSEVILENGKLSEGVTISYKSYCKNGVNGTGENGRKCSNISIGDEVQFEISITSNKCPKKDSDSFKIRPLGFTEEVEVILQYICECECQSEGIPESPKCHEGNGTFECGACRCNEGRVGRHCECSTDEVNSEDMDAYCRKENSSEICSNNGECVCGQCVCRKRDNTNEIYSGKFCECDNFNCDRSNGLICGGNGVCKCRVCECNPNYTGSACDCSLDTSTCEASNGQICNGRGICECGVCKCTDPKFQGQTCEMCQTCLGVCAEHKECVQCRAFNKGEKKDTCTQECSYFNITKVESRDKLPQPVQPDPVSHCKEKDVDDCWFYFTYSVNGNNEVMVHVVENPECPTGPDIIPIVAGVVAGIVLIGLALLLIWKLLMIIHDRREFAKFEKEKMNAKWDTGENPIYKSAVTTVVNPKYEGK
Compound,IC50 [2],BMC [3],BMD [3],C-terminal telopeptide of COL(1)α1 chain [3],further results
"NCCCC(O)(P(=O)(O)O)P(=O)(O)O [Alendronate, alendronate, reference compound]",,,,,ovariectomy-induced increase in osteoclast activity (serum C-terminal telopeptide of type-I collagen) [1]: reversed the ovariectomy-induced increase in osteoclast activity
"ARGDDL: rhodostomin variant with RGD motif ^48Ala-Arg-Gly-Asp-Asp-Leu^53, SEQ ID NO: 32",8.02 nM,0.624 ± 0.007 g,0.093 ± 0.001 g/cm^2,389 ± 16.4 ng/mL,
"PGP: rhodostomin variant having a RGD motif variant ^48PRGDGP^53, SEQ ID NO: 42",,,,,IC50 (integrin α5β1; read-out: IC50 α5β1): 4000 nM; IC50 (integrin α5β1; read-out: IC50 α5β1/Fn): 3460 nM; IC50 (platelet aggregation): 283 nM; IC50 (integrin αIIbβ3; read-out: IC50 αIIbβ3): 500 nM; IC50 (integrin αIIbβ3; read-out: IC50 αllbβ3/Fg): 2590 nM
"PRGDDL: rhodostomin variant with RGD motif ^48Pro-Arg-Gly-Asp-Asp-Leu^53, SEQ ID NO: 33",3.15 nM,,,,
"PRLDDL: rhodostomin variant with RGD motif ^48Pro-Arg-Leu-Asp-Asp-Leu^53, SEQ ID NO: 37",,0.563 ± 0.056 g,0.091 ± 0.002 g/cm^2,410 ± 25.1 ng/mL,
"RID: rhodostomin variant with RGD motif ^48Pro-Arg-Ile-Asp-Met-Pro^53, SEQ ID NO: 39",5.82 nM,0.622 ± 0.004 g,0.091 ± 0.001 g/cm^2,391 ± 12 ng/mL,
rhodostomin [reference compound],5.52 nM,0.619 ± 0.006 g,0.090 ± 0.001 g/cm^2,397 ± 13.6 ng/mL,IC50 (integrin αvβ3; read-out: IC50 αvβ3): 13 nM; IC50 (integrin αvβ3; read-out: IC50 αvβ3/Fg): 13 nM; effect on tail bleeding (clotting) time [4]: pronounced effect in prolonging the clotting time; IC50 (platelet aggregation): 83 nM; IC50 (integrin αIIbβ3; read-out: IC50 αIIbβ3): 21 nM; IC50 (integrin αIIbβ3; read-out: IC50 αllbβ3/Fg): 21 nM

# From patent publication US8183201B2 (priority 2006, dated 2012)
